Among the data in patent publication EP0068324A2, “Microcapsule preparation for reducing increased intracranial pressure and a process for preparing the same” (Tanabe Seiyaku Co., Ltd., priority 1981, dated 1983) are LD50 values, retold here.

The data set in a line: in vivo. As to conditions: mouse, po, mice, orally administered, measured one week after administration. The text has this:
The microcapsule preparation containing a propanol derivative of the present invention can reduce the intracranial pressure in an extremely small amount, which may be by a different mechanism from the hyperosmolar dehydrating effect by the known intravenous injection of a large amount of hypertonic solution, and the therapeutic effect is large and durable without showing any side effect such as a rebound increase of the intracranial pressure. The propanol derivative (I) of the present invention is low toxic and highly safeful.

SMILES strings stand for the structures.

For the compound `COc1cc(NC(C)=O)ccc1OCC(O)CN1CCN(c2cccc(F)c2)CC1` (stereo not shown) [1-(4-Acetamido-2-methoxyphenoxy)-3-[4-(3-fluorophenyl)piperazino]-2-propanol], the LD50 at 168 h was around 1500 mg/kg.

What is called LD50 is the dose at which mortality reaches 50%.
